Experimental data as given in patent publication US9173422B2, “Compositions including pyruvate for companion animals and methods of use thereof” (Hill's Pet Nutrition, Inc., priority 2009, dated 2015).

Test: Canine pyruvate study blood chemistry
Assay type: in vivo
Settings: dogs fed pyruvate compared to similar foods containing fish oil
Source text: 40 dogs were fed a control food for 28 days prior to start of the study. At day 0, dogs were allotted to one of three experimental foods, control+fish oil, control+pyruvate, or control+fish oil and pyruvate. Dogs were fed the experimental foods for 45 days. [table]

Structure (SMILES): CC(=O)C(=O)O [pyruvate, calcium pyruvate]
- blood urea nitrogen: reduced
- creatinine: reduced
